The results in this text go back to PubChem BioAssay (NCI).

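Assay format: 96-well plates, 48-hour exposure. GI50 = concentration required for 50% inhibition of growth. TGI denotes the concentration required for complete inhibition of growth.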 *1 amine or outer side, *2 acyl side, *3 side chain or, on linkers, in order; H or OH if unused. Where a SMILES comes first, the peptide text is derived from it. Bridges are numbered along the chain shown (N, C = ends). [ ]: non-standard residue; d: D form. The star is where a group is joined. Phe(3-Me) = Cc1cccc(C[C@H](N)C(=O)O)c1; NH(4-Cl-2-F-phenyl) = Fc1cc(Cl)ccc1N*; Pro(4R-Me) = C[C@H]1CN[C@H](C(=O)O)C1; Hyp = O=C(O)[C@@H]1C[C@@H](O)CN1; aThr = C[C@H](O)[C@H](N)C(=O)O; Pip = O=C(O)[C@@H]1CCCCN1; CO = O=C([*:1])[*:2] Where only a bound is given, the exact number is not on record here.

What all share (assay): inhibition of tumour cell growth, NCI panel, 48 h
For test [1], the system named is 786-0 renal.
Test [2] deals with BT-549 breast.
For test [3], the system named is EKVX NSCLC.
Test [4] concerns HL-60(TB) leukemia.
Test [5] concerns HOP-62 NSCLC.
Test [6] concerns KM12 colon.
In test [7] the test system is NCI-H460 lung.
Test [8] relates to NCI-H522 lung.
Test [9] relates to SK-MEL-5 melanoma.
In test [10] the test system is SR leukemia.

Take `Cc1cc2c(C(N)=O)cccc2n1-c1nc2c(c(NCc3ccccc3)n1)CCCN2`: the GI50 in test [1] is 248 nM; in test [2], 295 nM; in [3] it was 256 nM; in [4], 228 nM; in test [5], 217 nM; in test [6], 195 nM. In addition, the GI50 in test [7] was 232 nM; in [8], 164 nM; in test [9], 59.8 nM; in [10], 117 nM. The TGI was 519 nM in [1]; 695 nM in [2]; 630 nM in [3]; 1010 nM in test [4]; 454 nM in test [5]; 400 nM in test [6]. For the same compound, the TGI was 661 nM in test [7], 359 nM in test [8], 181 nM in test [9] and 525 nM in [10].
Turning to `Clc1cc(Cl)cc(N2N=C(c3cccc(Nc4ccncc4)c3)CC2c2ccc(Br)cc2)c1` (stereo unspecified), the GI50 is 1740 nM in [1]; 1940 nM in test [2]; 1600 nM in test [3]; 2440 nM in test [4]; 1690 nM in test [6]; 1810 nM in test [7]. Besides, the values for the GI50 in test [8], in test [9] and in test [10] were 1880 nM, 1810 nM and 1480 nM, respectively. Also, the TGI was determined as 3320 nM in [1]; 3720 nM in test [2]; 3200 nM in [3]; 6080 nM in test [4]; 3180 nM in [6]; 3510 nM in [7]. Further, the TGI in test [8] was found to be 3880 nM; in test [9], 3260 nM; in [10], 3680 nM.
For the compound `COc1cccc(/C=C/C(=O)c2cc3c(N)c(C(=O)Nc4cccc(Cl)c4C)sc3nc2C)c1`, the GI50 was 823 nM in test [1]; 1000 nM in test [2]; 2610 nM in [3]; 927 nM in test [4]; 1100 nM in test [5]; 1020 nM in test [6]. For the same compound, the GI50 in [7] is 1380 nM; in [8], 424 nM; in test [9], 1000 nM; in test [10], 217 nM. Further, the TGI was 1830 nM in test [1]; 2800 nM in test [2]; > 31800 nM in [3]; 2840 nM in test [4]; 4640 nM in [5]; 2800 nM in [6]. Also, the TGI is 4450 nM in [7], 2860 nM in test [8], 2340 nM in test [9] and > 12300 nM in [10].
As to `CCc1ccc(CCC(=O)Nc2ncc(Cc3ccccc3)s2)o1`, the GI50 in [1] was 6950 nM; in test [2], 52200 nM; in [3], 4600 nM; in [4] it was 1530 nM; in test [5], 2910 nM; in test [6], 1300 nM. Moreover, the GI50 in test [7] was 3060 nM; in [8], 1990 nM; in [9] it was 1160 nM; in test [10], 444 nM. Besides, the TGI in [1] was > 100000 nM; in test [2] it was > 100000 nM; in test [3] it was > 100000 nM; in [4] it was 4380 nM; in test [5], > 100000 nM; in [6], > 100000 nM. Moreover, the TGI in test [7], in [8], in [9] and in test [10] was > 100000 nM throughout.
`O=C(N/N=C/c1ccc(O)cc1O)c1ccc(Nc2ccnc(C(F)(F)F)c2)cc1`: the GI50 is 31200 nM in [1]; 22200 nM in [2]; 8910 nM in test [3]; > 34100 nM in test [4]; > 100000 nM in test [6]; > 100000 nM in [7]. The GI50 was 13500 nM in test [8], > 100000 nM in test [9] and > 100000 nM in test [10]. Further, the TGI is > 100000 nM in test [1]; 79900 nM in test [2]; > 75100 nM in test [3]; > 100000 nM in test [4]; > 100000 nM in [6]; > 100000 nM in test [7]. The TGI in [8] is > 70000 nM; in test [9] it was > 100000 nM; in test [10], > 100000 nM.
As for `CCC(C)/C=C(C)/C=C/C(=O)c1c(O)c(-c2ccc(O)cc2)c[nH]c1=O` (stereo unspecified), the GI50 was 4330 nM in test [1]; 4420 nM in [2]; 4080 nM in [3]; 2430 nM in [4]; 4200 nM in test [5]; 3410 nM in test [6]. Further, the GI50 in [7] was 3040 nM; in [8], 3300 nM; in [9] it was 4290 nM; in [10], 2390 nM. Besides, the TGI was determined as 16700 nM in [1]; 15300 nM in test [2]; 17600 nM in [3]; 21200 nM in test [4]; 16300 nM in test [5]; 12400 nM in test [6]. Besides, the TGI in test [7] amounted to 8820 nM; in test [8], 10800 nM; in [9], 16700 nM; in test [10], 6490 nM.
Regarding `Cc1cccc(C[C@H](NC(=O)Nc2ccc(Cl)cc2F)C(=O)N[C@@H]2C(=O)N3C[C@H](O)C[C@H]3C(=O)N3CCCC[C@H]3C(=O)N[C@@H](C)C(=O)N3C[C@H](C)C[C@H]3C(=O)O[C@H]2C)c1` ({NH(4-Cl-2-F-phenyl)-CO}-[Phe(3-Me)][aThr][Hyp][Pip]A[Pro(4R-Me)]; ester 2-C), the GI50 is 1280 nM in test [1]; 540 nM in test [2]; 860 nM in [3]; 322 nM in [4]; 484 nM in [5]; 788 nM in test [6]. The GI50 was 398 nM in test [7], 464 nM in test [8], 492 nM in [9] and 546 nM in test [10]. Moreover, the TGI in test [1] was 7690 nM; in test [2], 2740 nM; in test [3], 8040 nM; in [4] it was 1790 nM; in test [5] it was 3620 nM; in test [6], 2490 nM. The TGI turned out to be 2460 nM in test [7], 2600 nM in test [8], 1700 nM in test [9] and 3550 nM in [10].
